Data set [1] deals with conscious rat model of reflexogenic erections. The data set is described as follows: Rat ex copula assay, conscious rat model of reflexogenic erections. Format: in vivo. As to conditions: for efficacy of reference drugs in conscious rat model of reflexogenic erections: positive reference controls; for penile erections, % Increase from Vehicle or Baseline: rats. As to the method:
Sexually mature male Caesarian Derived Sprague Dawley (CD) rats (over 60 days old) are used with the suspensory ligament surgically removed to prevent retraction of the penis back into the penile sheath during the ex copula evaluations. Animals receive food and water ad lib and are kept on a normal light/dark cycle. Studies are conducted during the light cycle.
1) Conditioning to Supine Restraint for Ex Copula Reflex Tests. This conditioning takes ˜4 days. Day 1, the animals are placed in a darkened restrainer and left for 15-30 minutes. Day 2, the animals are restrained in a supine position in the restrainer for 15-30 minutes. Day 3, the animals are restrained in the supine position with the penile sheath retracted for 15-30 minutes. Day 4, the animals are restrained in the supine position with the penile sheath retracted until penile responses are observed. Some animals require additional days of conditioning before they are completely acclimated to the procedures; non-responders are removed from further evaluation. After any handling or evaluation animals are given a treat to ensure positive reinforcement.
2) Ex Copula Reflex Tests. Rats are gently restrained in a supine position with their anterior torso placed inside a cylinder of adequate size to allow for normal head and paw grooming. For a 400-500 gram rat, the diameter of the cylinder is approximately 8 cm. The lower torso and hind limbs are restrained with a non-adhesive material (vetrap). An additional piece of vetrap with a hole in it, through which the glans penis will be passed, is fastened over the animal to maintain the preputial sheath in a retracted position. Penile responses will be observed, typically termed ex copula genital reflex tests. Typically, a series of penile erections will occur spontaneously within a few minutes after sheath retraction. The types of normal reflexogenic erectile responses include elongation, engorgement, cup and flip. An elongation is classified as an extension of the penile body. Engorgement is a dilation of the glans penis. A cup is defined as an intense erection where the distal margin of the glans penis momentarily flares open to form a cup. A flip is a dorsiflexion of the penile body.
Baseline and or vehicle evaluations are conducted to determine how and if an animal will respond. Some animals have a long duration until the first response while others are non-responders altogether. During this baseline evaluation latency to first response, number and type of responses are recorded. The testing time frame is 15 minutes after the first response.
[…] All evaluations are videotaped and scored later. Data are collected and analyzed using paired 2 tailed t-tests to compared baseline and/or vehicle evaluations to drug treated evaluations for individual animals. Groups of a minimum of 4 animals are utilized to reduce variability.
Positive reference controls are included in each study to assure the validity of the study. Animals can be dosed by a number of routes of administration depending on the nature of the study to be performed. The routes of administration includes intravenous (IV), intraperitoneal (IP), subcutaneous (SC) and intracerebral ventricular (ICV).
In this non-random crossover model, rats were placed in the supine position with the preputial sheath retracted to initiate a reflex arc. The number of erections was counted in the 15 minute period following the first erection.

Another data set relates to erectile dysfunction. As to conditions: cited from earlier work; for duration of effect / onset of action: after an oral dose, men; for proportion of men/patients with adequate response: oral, erectile dysfunction patients.
Data set [2] addresses T1, human MC-5R (Homo sapiens, UniProt P33032).
T1 construct: expressed in transfected cells; host or cells: CHO- or L-cells or other eukaryotic cells
Nature of the data set: Membrane binding assay, competition with 125I-NDP-alpha-MSH. The settings on record: human receptor; average of at least 3 determinations. As to the method: (§1) A. Binding Assay. The membrane binding assay was used to identify competitive inhibitors of ^125I-NDP-alpha-MSH binding to cloned human MCRs expressed in L- or CHO-cells.
(§2) Cell lines expressing melanocortin receptors were grown in T-180 flasks containing selective medium of the composition: 1 L Dulbecco's modified Eagles Medium (DMEM) with 4.5 g L-glucose, 25 mM Hepes, without sodium pyruvate, (Gibco/BRl); 100 ml 10% heat-inactivated fetal bovine serum (Sigma); 10 ml 10,000 unit/ml penicillin & 10,000 ug/ml streptomycin (Gibco/BRl); 10 ml 200 mM L-glutamine (Gibco/BRl); 1 mg/ml Geneticin (G418) (Gibco/BRl). The cells were grown at 37° C. with CO2 and humidity control until the desired cell density and cell number was obtained.
(§3) The medium was poured off and 10 mls/monolayer of enzyme-free dissociation media (Specialty Media Inc.) was added. The cells were incubated at 37° C. for 10 minutes or until cells sloughed off when flask was banged against hand.
(§4) The cells were harvested into 200 ml centrifuge tubes and spun at 1000 rpm, 4° C., for 10 min. […]
(§5) IC50's were determined in a competition binding assay with ^125I-NDP-alpha-MSH as ligand using crude membranes prepared from cell lines expressing the appropriate MC-R. Functional EC50's were determined by application of compound to intact cells followed by direct measurement of cAMP as described in the Biological Assays section above.

In the next data set the target is T2, human MC-1R (Homo sapiens, UniProt Q01726).
T2 construct: expressed in transfected cells; host or cells: CHO- or L-cells or other eukaryotic cells
The data set is described as follows: Functional cell based cAMP assay. As to conditions: cAMP relative to alpha-MSH at 10 μM defined as 100% agonist.
Text: (§6) B. Functional assay. Functional cell based assays were developed to discriminate melanocortin receptor agonists from antagonists.
(§7) Cells (for example, CHO- or L-cells or other eukaryotic cells) expressing a human melanocortin receptor (see e.g. Yang-YK; Ollmann-MM; Wilson-BD; Dickinson-C; Yamada-T; Barsh-GS; Gantz-I; Mol-Endocrinol. 1997 Mar; 11(3): 274-80) were dissociated from tissue culture flasks by rinsing with Ca and Mg free phosphate buffered saline (14190-136, Life Technologies, Gaithersburg, Md.) and detached following 5 minutes incubation at 37° C. with enzyme free dissociation buffer (S-014-B, Specialty Media, Lavellette, N.J.). Cells were collected by centrifugation and resuspended in Earle's Balanced Salt Solution (14015-069, Life Technologies, Gaithersburg, Md.) with additions of 10 mM HEPES pH 7.5, 5 mM MgCl2, 1 mM glutamine and 1 mg/ml bovine serum albumin. Cells were counted and diluted to 1 to 5×10^6/ml. The phosphodiesterase inhibitor 3-isobutyl-1-methylxanthine was added to cells to 0.6 mM.
(§8) Test compounds were diluted in dimethylsulfoxide (DMSO) (10^−5 to 10^−10 M) and 0.1 volume of compound solution was added to 0.9 volumes of cell suspension; the final DMSO concentration was 1%. After room temperature incubation for 45 min., cells were lysed by incubation at 100° C. for 5 min. to release accumulated cAMP.
(§9) cAMP was measured in an aliquot of the cell lysate with the Amersham (Arlington Heights, Ill.) cAMP detection assay (RPA556). The amount of cAMP production which resulted from an unknown compound was compared to that amount of cAMP produced in response to alpha-MSH at 10 μM which was defined as a 100% agonist.
as §5
A general note: Changes in cAMP serve as a functional read-out for many G protein-coupled receptors.

For the next data set, the target named is T3, human MC-3R (Homo sapiens, UniProt P41968).
T3 construct: expressed in transfected cells; host or cells: CHO- or L-cells or other eukaryotic cells
Nature of the data set: Functional cell based cAMP assay. The settings on record: cAMP relative to alpha-MSH at 10 μM defined as 100% agonist.
Text: as §6, §7, §8, §9, §5

Data set [3] deals with T1, human MC-5R. The data set is described as follows: Functional cell based cAMP assay.
Text: as §6, §7, §8, §9, §5

For data set [4], the target named is T4, human MC-2R (Homo sapiens, UniProt Q01718). The data set is described as follows: Functional cell based cAMP assay. Set-up: expressed in transfected cells; host or cells: L- or CHO-cells. The settings on record: @ 10 μM; cAMP relative to alpha-MSH defined as 100% agonist.
Text: as §6
as §7, with “The phosphodiesterase inhibitor 3-isobutyl-1-methylxanthine was added to cells to 0.6 mM.” left out
cAMP was measured in an aliquot of the cell lysate with the Amersham (Arlington Heights, Ill.) cAMP detection assay (RPA556). […]
as §5

In data set [5] the target is T4, human MC-2R. Nature of the data set: Membrane binding assay, competition with 125I-NDP-alpha-MSH. Details: expressed in transfected cells; host or cells: L- or CHO-cells (membranes). The settings on record: human receptor; average of at least 3 determinations. As to the method: as §1, §2, §3, §4, §5
The test system of data set [6] is animal feeding models (NPY, ob/ob, agouti, fasted). As to conditions: injected intracerebroventricularly (ICV) in rodents; cited from earlier work.
Data set [7] has as its system psychogenic erectile dysfunction. As to conditions: cited from earlier work.
The conditions of data set [8]: in vivo; cited from earlier work.

Marks after values point to notes of the source that are not given here.

T1 sequence (P33032 whole entry): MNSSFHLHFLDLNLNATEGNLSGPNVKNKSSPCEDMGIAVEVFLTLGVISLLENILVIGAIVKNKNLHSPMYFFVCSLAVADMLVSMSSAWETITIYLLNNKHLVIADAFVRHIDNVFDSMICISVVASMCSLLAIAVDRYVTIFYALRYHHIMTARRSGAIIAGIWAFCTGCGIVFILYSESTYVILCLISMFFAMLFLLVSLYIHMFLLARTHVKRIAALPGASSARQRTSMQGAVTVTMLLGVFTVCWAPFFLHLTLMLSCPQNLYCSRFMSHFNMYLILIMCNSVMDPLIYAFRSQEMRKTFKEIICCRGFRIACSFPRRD
T4 sequence (Q01718 whole entry): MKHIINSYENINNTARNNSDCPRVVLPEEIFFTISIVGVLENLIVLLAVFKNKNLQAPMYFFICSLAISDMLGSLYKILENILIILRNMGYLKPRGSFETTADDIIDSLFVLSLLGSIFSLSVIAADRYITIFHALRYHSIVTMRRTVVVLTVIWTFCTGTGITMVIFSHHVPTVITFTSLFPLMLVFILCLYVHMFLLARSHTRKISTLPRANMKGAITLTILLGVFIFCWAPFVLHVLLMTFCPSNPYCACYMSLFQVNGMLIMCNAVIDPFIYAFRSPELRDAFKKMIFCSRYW
T2 sequence (Q01726 whole entry): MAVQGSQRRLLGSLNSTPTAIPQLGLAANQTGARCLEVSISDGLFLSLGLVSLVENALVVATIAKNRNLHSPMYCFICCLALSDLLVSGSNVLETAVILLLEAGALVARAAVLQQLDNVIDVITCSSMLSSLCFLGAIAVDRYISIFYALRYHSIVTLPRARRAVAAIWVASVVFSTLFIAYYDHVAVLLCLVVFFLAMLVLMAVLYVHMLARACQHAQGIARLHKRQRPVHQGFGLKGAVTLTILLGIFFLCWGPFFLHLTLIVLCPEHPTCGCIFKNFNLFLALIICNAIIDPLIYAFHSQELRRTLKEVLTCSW
T3 sequence (P41968 whole entry): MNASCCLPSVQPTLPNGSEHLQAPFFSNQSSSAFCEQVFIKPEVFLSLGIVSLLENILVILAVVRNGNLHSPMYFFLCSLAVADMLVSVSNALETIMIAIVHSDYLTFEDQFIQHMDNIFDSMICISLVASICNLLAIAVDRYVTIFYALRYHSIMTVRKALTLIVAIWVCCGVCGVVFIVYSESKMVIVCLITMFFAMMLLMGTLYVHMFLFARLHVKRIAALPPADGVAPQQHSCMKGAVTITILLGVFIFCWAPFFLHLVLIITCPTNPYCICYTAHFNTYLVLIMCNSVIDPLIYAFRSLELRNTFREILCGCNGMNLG

Regarding `CCCc1nn(C)c2c(=O)[nH]c(-c3cc(S(=O)(=O)N4CCN(C)CC4)ccc3OCC)nc12` [sildenafil], the “efficacy of reference drugs in conscious rat model of reflexogenic erections” value in data set [1] was “effective”. Also, in the data set on erectile dysfunction, the duration of effect entry is recorded as “about 4 hours”, the onset of action was 30 to 60 min and the “proportion of men/patients with adequate response” value is “about 70%”. Also, in the data set on erectile dysfunction (clinical use), the “adverse effects associated with clinical use” value is “headache, flushing, dyspepsia, and “abnormal vision”.
As a reminder, the IC50 is the concentration at which inhibition is half-maximal. The EC50 is the concentration needed to bring the measured effect to its halfway point. Read a high EC50 as lower potency in that assay. Consider `O=C(N[C@H](Cc1ccc(Cl)cc1)C(=O)N1CCC(Cn2cncn2)(C2CCCCC2)CC1)[C@H]1Cc2ccccc2CN1` [Example 2], for which the 50% inhibitory concentration (IC50) was 230 nM at human MC-5R [2] and above 10000 nM at human MC-2R [5]. For the same compound, at human MC-1R, the “Functional Activity, agonist efficacy, MC-1R” value stood at 84%. In addition, the “Functional Activity, agonist efficacy, MC-3R” value on human MC-3R worked out at 29%. In addition, at human MC-5R [3] (cAMP relative to alpha-MSH at 10 μM defined as 100% agonist), the “Functional Activity, agonist efficacy, MC-5R” value worked out at 58%. The EC50 at human MC-5R [3] (human receptor, cAMP, average of at least 3 determinations) is 530 nM. For the same compound, the “number of erections in conscious rat model of reflexogenic erections” value in data set [1] (administered by the intravenous (IV) route or by the oral (PO) route) is on record as “effective in significantly increasing the number of erections”. The “penile erections, % Increase from Vehicle or Baseline” value is 15* % in [1] (0.3 mg/kg IV, placed supine 60 min after dosing, P = 0.05); 31% in data set [1] (1.0 mg/kg IV, placed supine 0 min after dosing, P = 0.05); 35% in data set [1] (1.0 mg/kg IV, placed supine 60 min after dosing, P = 0.05); 50** % in [1] (5.0 mg/kg IV, placed supine 60 min after dosing, P = 0.01); 45% in data set [1] (10 mg/kg IV, placed supine 0 min after dosing, P = 0.01); 38% in data set [1] (10 mg/kg IV, placed supine 60 min after dosing, P = 0.01). Further, the “penile erections, % Increase from Vehicle or Baseline” value is 24** % in data set [1] (20 mg/kg PO, placed supine 60 min after dosing, P = 0.01) and 41* % in data set [1] (20 μG ICV, placed supine 0 min after dosing, P = 0.05). Moreover, the “Functional Activity, agonist efficacy, MC-2R” value at human MC-2R [4] stood at 0% @ 10 μM.
Regarding “Ac-Nle-c[Asp-His-DPhe-Arg-Trp-Lys]-NH2 [MT-II]”, in data set [6], the “effect on food intake” value was “reduces food intake”. Moreover, the adverse reactions observed result in [7] (in vivo) was “nausea, flushing, loss of appetite, stretching, and yawning”. Moreover, in data set [7] (injected intramuscularly or subcutaneously to males with psychogenic erectile dysfunction), the response rate is given as 75%. In addition, in [7] (men), the duration of action entry is recorded as “approximately 2.5 hours” and the “time to onset of erection” value is 10 to 20 min. Moreover, in data set [8], the “absorption into the systemic circulation by the oral route” value was “not absorbed into the systemic circulation”.
As to `Cc1ccc(N(CC2=NCCN2)c2cccc(O)c2)cc1` [phentolamine], in the data set with erectile dysfunction, the duration of effect is 2 h, the onset of action was 5 to 30 min and the “proportion of men/patients with adequate response” value was 35-40%.
In the case of SHU-9119, the “effect on food intake” value in data set [6] was “reverses this effect and can induce hyperphagia”.
As to `CN1CCc2cccc3c2[C@H]1Cc1ccc(O)c(O)c1-3` [apomorphine], the “efficacy of reference drugs in conscious rat model of reflexogenic erections” value in data set [1] is “effective”.

The record behind these values is US6350760B1, “Substituted piperidines as melanocortin-4 receptor agonists” (Merck & Co., Inc., priority 1999, dated 2002).
